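How tested: cells in 96-well plates exposed to compound for 48 hours at five concentrations. At the GI50, growth is halved. At the TGI there is no net growth.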 A value given as a limit tells only on which side of the number the result lay.

For one test, the system named is 786-0 renal. In words: NCI tumour cell line growth inhibition, 48 h.
Consider `COC(=O)C1=C(C)NC(C)=C(C(=O)OCCCN2CCC(c3ccccc3)(c3ccccc3)CC2)C1c1cccc([N+](=O)[O-])c1` (stereo not drawn), for which the TGI was found to be 2.99 µM.

Turning to `COc1ccc([C@H]2[C@@H](F)C(=O)N2c2cc(OC)c(OC)c(OC)c2)cc1F`, the GI50 was 0.0462 µM and the TGI amounted to 15.1 µM.

Turning to `N=Nc1c(OC(=O)Nc2cccc(Cl)c2)[nH]c2ccccc12`, the TGI was determined as 18.2 µM.

In turn, `CC1(C)C2CCC(=O)C1CC2` (stereo not drawn) came in with a TGI greater than 100 µM.

For the compound `Fc1cc2[nH]ncc2c2c3c(c(-c4cn[nH]c4)nc12)CCCC3`, the GI50 was 2.38 µM and the TGI is greater than 28 µM.

On to `CCN(CC)c1ccc(-c2cc(-c3cc(OC)c(OC)c(OC)c3)nc(N3CCOCC3)c2C#N)cc1`, for which the GI50 is 1.9 µM and the TGI was 9.94 µM.

In the case of `C=C(Br)C(C)(Br)CCC(Br)C(C)(C)Cl` (stereo not drawn), the TGI was 33.5 µM.

For `O=C(CCc1nnc2sc(-c3ccc(Cl)cc3Cl)nn12)c1nc2ncccc2[nH]1`, the GI50 was 1.81 µM and the TGI is 3.53 µM.

`ClCc1cccc(Cn2cnc3ncnc(Cl)c32)c1`: the GI50 was 2.06 µM and the TGI came out at 4.09 µM.

With `OCC#Cc1ccccc1C#Cc1ccccc1`, the GI50 is 14.6 µM and the TGI came out at 27.7 µM.

The compound `NS(=O)(=O)c1cc(Br)c(N=Nc2ccc(O)c3ncccc23)c(Br)c1` returned a TGI greater than 100 µM.

With `O=C(Nc1ccc(Cl)cc1)c1cccc(NC2=C(Cl)C(=O)N(Cc3ccccc3)C2=O)c1`, the GI50 is 7.83 µM and the TGI is 20.9 µM.

For `O=C(/C=C/c1ccncc1)c1cc(Cl)ccc1O`, the GI50 is 17.9 µM and the TGI was 34.1 µM.

Take `Cc1cc(/C=C/c2ccc3cc(N(C)C)ccc3[n+]2C)c(C)n1-c1ccccc1`: the GI50 is 0.262 µM and the TGI was 1.53 µM.

`CC[C@H](Nc1ncnc2nc[nH]c12)c1oc2ccccc2c(=O)c1-c1cccc(F)c1`: the GI50 was 21.4 µM and the TGI is greater than 100 µM.

In turn, `COc1cc(NCc2ccc3oc(=O)c(-c4ccccc4)nc3c2)cc(OC)c1OC` had a TGI greater than 10 µM.

As to `COc1ccc(-c2nnc(COc3ccc(NC(=O)Nc4cc(C(F)(F)F)cc(C(F)(F)F)c4)cc3F)o2)cc1`, the GI50 is 2.2 µM and the TGI is 4.7 µM.

`COC1=CC(=O)C(C2CC(=O)c3c(O)cc(O)cc3O2)=CC1=O` (stereo not drawn) displayed a TGI of 31.7 µM.

In the case of `COc1cc(/C=C/c2cc(O)c(C(C)=O)c(O)c2)cc2c1O[C@]1(C)CC[C@@H](O)C(C)(C)[C@H]1C2`, the GI50 was 2.91 µM and the TGI is 28.9 µM.

The compound `CC(C)C(C)/C=C\C(C)C1CCC2C3=CC=C4CC(O)CCC4(C)C3CCC21C` (stereo not drawn) displayed a TGI greater than 60.7 µM.

Regarding `Cc1cc2c(cc1Cl)SC(N(N(C)C)S(=O)(=O)c1ccc(Cl)cc1)=NS2(=O)=O`, the GI50 was 34.8 µM and the TGI was greater than 100 µM.

The next test relates to CCRF-CEM leukemia. Description: NCI tumour cell line growth inhibition, 48 h.
Turning to `COC(=O)C1=C(C)NC(C)=C(C(=O)OCCCN2CCC(c3ccccc3)(c3ccccc3)CC2)C1c1cccc([N+](=O)[O-])c1` (stereo not drawn), the TGI is greater than 100 µM.

As to `COc1ccc([C@H]2[C@@H](F)C(=O)N2c2cc(OC)c(OC)c(OC)c2)cc1F`, the GI50 was 0.0471 µM and the TGI was greater than 100 µM.

As for `N=Nc1c(OC(=O)Nc2cccc(Cl)c2)[nH]c2ccccc12`, the TGI was determined as 21.9 µM.

As for `CC1(C)C2CCC(=O)C1CC2` (stereo not drawn), the TGI is greater than 100 µM.

As to `Fc1cc2[nH]ncc2c2c3c(c(-c4cn[nH]c4)nc12)CCCC3`, the GI50 is 1.13 µM and the TGI is greater than 100 µM.

For the compound `CCN(CC)c1ccc(-c2cc(-c3cc(OC)c(OC)c(OC)c3)nc(N3CCOCC3)c2C#N)cc1`, the GI50 was 0.611 µM and the TGI was greater than 44.5 µM.

Compound `C=C(Br)C(C)(Br)CCC(Br)C(C)(C)Cl` (stereo not drawn) gave a TGI of 13.4 µM.

For `O=C(CCc1nnc2sc(-c3ccc(Cl)cc3Cl)nn12)c1nc2ncccc2[nH]1`, the GI50 is 2.68 µM and the TGI worked out at 9 µM.

As for `ClCc1cccc(Cn2cnc3ncnc(Cl)c32)c1`, the GI50 is 6.91 µM and the TGI amounted to 22.2 µM.

Turning to `OCC#Cc1ccccc1C#Cc1ccccc1`, the GI50 is 7.14 µM and the TGI was found to be 39.8 µM.

`NS(=O)(=O)c1cc(Br)c(N=Nc2ccc(O)c3ncccc23)c(Br)c1` came in with a TGI of 6.74 µM.

As for `O=C(Nc1ccc(Cl)cc1)c1cccc(NC2=C(Cl)C(=O)N(Cc3ccccc3)C2=O)c1`, the GI50 was 2.73 µM and the TGI is 12.3 µM.

As to `O=C(/C=C/c1ccncc1)c1cc(Cl)ccc1O`, the GI50 is 7.95 µM and the TGI is 36.2 µM.

With `Cc1cc(/C=C/c2ccc3cc(N(C)C)ccc3[n+]2C)c(C)n1-c1ccccc1`, the GI50 was 0.218 µM and the TGI was 2.6 µM.

On to `CC[C@H](Nc1ncnc2nc[nH]c12)c1oc2ccccc2c(=O)c1-c1cccc(F)c1`, for which the GI50 is 23.3 µM and the TGI was greater than 100 µM.

As to `COc1cc(NCc2ccc3oc(=O)c(-c4ccccc4)nc3c2)cc(OC)c1OC`, the TGI is greater than 10 µM.

Turning to `COc1ccc(-c2nnc(COc3ccc(NC(=O)Nc4cc(C(F)(F)F)cc(C(F)(F)F)c4)cc3F)o2)cc1`, the GI50 was 2.86 µM and the TGI worked out at 11.6 µM.

`COC1=CC(=O)C(C2CC(=O)c3c(O)cc(O)cc3O2)=CC1=O` (stereo not drawn) showed a TGI of 2.42 µM.

Consider `COc1cc(/C=C/c2cc(O)c(C(C)=O)c(O)c2)cc2c1O[C@]1(C)CC[C@@H](O)C(C)(C)[C@H]1C2`, for which the GI50 was 4.4 µM and the TGI is greater than 100 µM.

Regarding `CC(C)C(C)/C=C\C(C)C1CCC2C3=CC=C4CC(O)CCC4(C)C3CCC21C` (stereo not drawn), the TGI was greater than 66.9 µM.

Turning to `Cc1cc2c(cc1Cl)SC(N(N(C)C)S(=O)(=O)c1ccc(Cl)cc1)=NS2(=O)=O`, the GI50 is 3.29 µM and the TGI was greater than 100 µM.
